Measured values reported in patent US9315490B2, “2,5-substituted pyrimidines” (Grünenthal GmbH, priority 2014, dated 2016).

Key:
human PDE4B1 = target: T1, human PDE4B1 (Homo sapiens, UniProt Q07343); test: cAMP HTRF assay to determine the activity of hPDE4B1; type: biochemical; details: inhibition of PDE4B at a test concentration of 1 μM
T1 construct: host or cells: Sf9 cells
How it was run: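 Human recombinant PDE4B1 from Sf9 cells (4.8 U) in Tris-HCl, MgCl2, DTT, Tween 20 buffer at pH 7.8 with 40 nM cAMP (final), 30 min at room temperature. Reaction stopped with 1 mM IBMX; remaining cAMP detected by HTRF (665/620 nm ratio). IC50 from eight-concentration curves.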

T1 sequence (Q07343 whole entry): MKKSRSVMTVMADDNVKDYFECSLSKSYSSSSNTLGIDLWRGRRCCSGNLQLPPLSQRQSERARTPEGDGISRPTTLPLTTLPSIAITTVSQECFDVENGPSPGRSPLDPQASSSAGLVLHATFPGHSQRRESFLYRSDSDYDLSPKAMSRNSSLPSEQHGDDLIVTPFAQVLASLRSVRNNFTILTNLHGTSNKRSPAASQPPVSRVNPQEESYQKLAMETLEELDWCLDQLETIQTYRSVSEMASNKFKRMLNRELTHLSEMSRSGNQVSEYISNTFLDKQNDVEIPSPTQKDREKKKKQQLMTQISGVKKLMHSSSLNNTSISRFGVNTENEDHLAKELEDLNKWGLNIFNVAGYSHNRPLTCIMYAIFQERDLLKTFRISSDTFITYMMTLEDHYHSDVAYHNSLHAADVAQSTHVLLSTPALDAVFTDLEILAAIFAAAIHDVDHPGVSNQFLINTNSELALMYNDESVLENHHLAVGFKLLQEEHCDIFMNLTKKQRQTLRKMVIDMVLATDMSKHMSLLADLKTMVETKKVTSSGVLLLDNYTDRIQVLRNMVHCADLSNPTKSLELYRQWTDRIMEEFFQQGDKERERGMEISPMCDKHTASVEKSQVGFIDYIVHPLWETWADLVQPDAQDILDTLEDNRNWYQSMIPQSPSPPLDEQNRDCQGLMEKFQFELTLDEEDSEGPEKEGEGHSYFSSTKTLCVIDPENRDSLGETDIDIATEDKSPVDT

| SMILES | inhibition at 1 µM (human PDE4B1) | melting point |
| --- | --- | --- |
| C[S+]([O-])c1cn(-c2ncc(-c3cc(C#N)ccc3F)cn2)c2cc(C(=O)N3CCNCC3)ccc12 (stereo not shown) [Example 17, 4-Fluoro-3-(2-(3-(methylsulfinyl)-6-(piperazine-1-carbonyl)-1H-indol-1-yl)pyrimidin-5-yl)benzonitrile] | 41% | 159 to 163 °C |
| C[S+]([O-])c1cn(-c2ncc(-c3ccc(F)cc3F)cn2)c2cc(C(=O)N3CCOCC3)ccc12 (stereo not shown) [Example 18, (1-(5-(2,4-Difluorophenyl)pyrimidin-2-yl)-3-(methylsulfinyl)-1H-indol-6-yl)(morpholino)methanone] | 91% | 230 to 233 °C |
| C[S+]([O-])c1cn(-c2ncc(-c3ccc(C(N)=O)cc3F)cn2)c2cc(C(=O)N3CCOCC3)ccc12 (stereo not shown) [Example 19, 3-Fluoro-4-(2-(3-(methylsulfinyl)-6-(morpholine-4-carbonyl)-1H-indol-1-yl)pyrimidin-5-yl)benzamide] | 94% | 202 to 206 °C |
| C[S+]([O-])c1cn(-c2ncc(-c3ccccc3C#N)cn2)c2cc(C(=O)N3CCOCC3)ccc12 (stereo not shown) [Example 20, 2-(2-(3-(Methylsulfinyl)-6-(morpholine-4-carbonyl)-1H-indol-1-yl)pyrimidin-5-yl)benzonitrile] | 74% | 277 to 281 °C |
| CS(=O)(=O)c1cn(-c2ncc(-c3ccccc3F)cn2)c2cc(C(=O)N3CCNCC3)ccc12 [Example 24, (1-(5-(2-Fluorophenyl)pyrimidin-2-yl)-3-(methylsulfonyl)-1H-indol-6-yl)(piperazin-1-yl)methanone] | 41% | 206 to 210 °C |
| CS(=O)(=O)c1cn(-c2ncc(-c3cc(C#N)ccc3F)cn2)c2cc(C(=O)N3CCNCC3)ccc12 [Example 26, 4-Fluoro-3-(2-(3-(methylsulfonyl)-6-(piperazine-1-carbonyl)-1H-indol-1-yl)pyrimidin-5-yl)benzonitrile] | 41% | 279 to 283 °C |
| O=C(c1ccc2c(CO)cn(-c3ncc(-c4ccccc4F)cn3)c2c1)N1CCOCC1 [Example 27, (1-(5-(2-Fluorophenyl)pyrimidin-2-yl)-3-(hydroxymethyl)-1H-indol-6-yl)(morpholino)methanone] | 79% | 190 to 194 °C |
| CC[S+]([O-])c1cn(-c2ncc(-c3ccccc3F)cn2)c2cc(C(=O)N3CCOCC3)ccc12 (stereo not shown) [Example 29, (3-(Ethylsulfinyl)-1-(5-(2-fluorophenyl)pyrimidin-2-yl)-1H-indol-6-yl)(morpholino)methanone] | 57% | 122 to 126 °C |
| COc1ccnc(-c2cnc(-n3cc([S+](C)[O-])c4ccc(C(=O)N5CCOCC5)cc43)nc2)c1 (stereo not shown) [Example 141, (1-(5-(4-Methoxypyridin-2-yl)pyrimidin-2-yl)-3-(methylsulfinyl)-1H-indol-6-yl)(morpholino)methanone] | 115% | 216 to 220 °C |
| C[S+]([O-])c1cn(-c2ncc(-c3ccnc(O)c3)cn2)c2cc(C(=O)N3CCOCC3)ccc12 (stereo not shown) [Example 143, (1-(5-(2-Hydroxypyridin-4-yl)pyrimidin-2-yl)-3-(methylsulfinyl)-1H-indol-6-yl)(morpholino)methanone] | 65% | 262 to 265 °C |
| C[S+]([O-])c1cn(-c2ncc(-c3cccnn3)cn2)c2cc(C(=O)N3CCOCC3)ccc12 (stereo not shown) [Example 144, (3-(Methylsulfinyl)-1-(5-(pyridazin-3-yl)pyrimidin-2-yl)-1H-indol-6-yl)(morpholino)methanone] | 47% | 261 to 265 °C |
| C[S+]([O-])c1cn(-c2ncc(-c3cscn3)cn2)c2cc(C(=O)N3CCOCC3)ccc12 (stereo not shown) [Example 145, (3-(Methylsulfinyl)-1-(5-(thiazol-4-yl)pyrimidin-2-yl)-1H-indol-6-yl)(morpholino)methanone] | 83% | 254 to 257 °C |
| C[S+]([O-])c1cn(-c2ncc(-c3cc(N)ccc3F)cn2)c2cc(C(=O)N3CCOCC3)ccc12 (stereo not shown) [Example 146, (1-(5-(5-Amino-2-fluorophenyl)pyrimidin-2-yl)-3-(methylsulfinyl)-1H-indol-6-yl)(morpholino)methanone] | 118% | 188 to 192 °C |
| C[S+]([O-])c1cn(-c2ncc(-c3cc(O)ccn3)cn2)c2cc(C(=O)N3CCOCC3)ccc12 (stereo not shown) [Example 147, (1-(5-(4-Hydroxypyridin-2-yl)pyrimidin-2-yl)-3-(methylsulfinyl)-1H-indol-6-yl)(morpholino)methanone] | 67% | 272 to 276 °C |
| C[S+]([O-])c1cn(-c2ncc(-c3cccc(O)c3)cn2)c2cc(C(=O)N3CCOCC3)ccc12 (stereo not shown) [Example 149, (1-(5-(3-Hydroxyphenyl)pyrimidin-2-yl)-3-(methylsulfinyl)-1H-indol-6-yl)(morpholino)methanone] | 87% | 249 to 253 °C |
| C[S+]([O-])c1cn(-c2ncc(-c3ccncc3F)cn2)c2cc(C(=O)N3CCOCC3)ccc12 (stereo not shown) [Example 150, (1-(5-(3-Fluoropyridin-4-yl)pyrimidin-2-yl)-3-(methylsulfinyl)-1H-indol-6-yl)(morpholino)methanone] | 49% | 241 to 244 °C |
| Cc1cccc(-c2cnc(-n3cc(S(C)(=O)=O)c4ccc(C(=O)N5CCNC(=O)C5)cc43)nc2)c1 [Example 151, 4-(3-(Methylsulfonyl)-1-(5-(m-tolyl)pyrimidin-2-yl)-1H-indole-6-carbonyl)piperazin-2-one] | 91% | 283 to 287 °C |
| COc1ccc(F)c(-c2cnc(-n3cc(S(C)(=O)=O)c4ccc(C(=O)N5CCNC(=O)C5)cc43)nc2)c1 [Example 152, 4-(1-(5-(2-Fluoro-5-methoxyphenyl)pyrimidin-2-yl)-3-(methylsulfonyl)-1H-indole-6-carbonyl)piperazin-2-one] | 90% | 293 to 295 °C |
| COc1cccc(-c2cnc(-n3cc(S(C)(=O)=O)c4ccc(C(=O)N5CCNC(=O)C5)cc43)nc2)c1 [Example 153, 4-(1-(5-(3-Methoxyphenyl)pyrimidin-2-yl)-3-(methylsulfonyl)-1H-indole-6-carbonyl)piperazin-2-one] | 76% | 270 to 273 °C |
| CO[C@H]1CCN(C(=O)c2ccc3c([S+](C)[O-])cn(-c4ncc(-c5ccccc5F)cn4)c3c2)C1 (stereo partly drawn) [Example 172, (1-(5-(2-Fluorophenyl)pyrimidin-2-yl)-3-(methylsulfinyl)-1H-indol-6-yl)((S)-3-methoxypyrrolidin-1-yl)methanone] | 46% | 164 to 166 °C |
| CC(C)(O)c1cn(-c2ncc(-c3ccccc3F)cn2)c2cc(C(=O)N3CCOCC3)ccc12 [Example 184, (1-(5-(2-Fluorophenyl)pyrimidin-2-yl)-3-(2-hydroxypropan-2-yl)-1H-indol-6-yl)(morpholino)methanone] | 86% | 116 to 119 °C |
| Cc1cc(-c2cnc(-n3cc([S+](C)[O-])c4ccc(C(=O)N5CCOCC5)cc43)nc2)ccn1 (stereo not shown) [Example 186, (1-(5-(2-Methylpyridin-4-yl)pyrimidin-2-yl)-3-(methylsulfinyl)-1H-indol-6-yl)(morpholino)methanone] | 74% | 230 to 232 °C |
| C[S+]([O-])c1cn(-c2ncc(-c3ccnc(F)c3)cn2)c2cc(C(=O)N3CCOCC3)ccc12 (stereo not shown) [Example 187, (1-(5-(2-Fluoropyridin-4-yl)pyrimidin-2-yl)-3-(methylsulfinyl)-1H-indol-6-yl)(morpholino)methanone] | 56% | 285 to 288 °C |
| C[S+]([O-])c1cn(-c2ncc(-c3cccc(CO)c3)cn2)c2cc(C(=O)N3CCOCC3)ccc12 (stereo not shown) [Example 188, (1-(5-(3-(Hydroxymethyl)phenyl)pyrimidin-2-yl)-3-(methylsulfinyl)-1H-indol-6-yl)(morpholino)methanone] | 104% | 193 to 196 °C |
| CCc1cccc(-c2cnc(-n3cc([S+](C)[O-])c4ccc(C(=O)N5CCOCC5)cc43)nc2)c1 (stereo not shown) [Example 189, (1-(5-(3-Ethylphenyl)pyrimidin-2-yl)-3-(methylsulfinyl)-1H-indol-6-yl)(morpholino)methanone] | 109% | 162 to 165 °C |
| COC(=O)c1ccc(-c2cnc(-n3cc([S+](C)[O-])c4ccc(C(=O)N5CCOCC5)cc43)nc2)cc1 (stereo not shown) [Example 190, Methyl 4-(2-(3-(methylsulfinyl)-6-(morpholine-4-carbonyl)-1H-indol-1-yl)pyrimidin-5-yl)benzoate] | 90% | 256 to 258 °C |
| C[S+]([O-])c1cn(-c2ncc(-c3ccc(C(=O)O)cc3)cn2)c2cc(C(=O)N3CCOCC3)ccc12 (stereo not shown) [Example 191, 4-(2-(3-(Methylsulfinyl)-6-(morpholine-4-carbonyl)-1H-indol-1-yl)pyrimidin-5-yl)benzoic acid] | 85% | 219 to 223 °C |
| COC(=O)c1cccc(-c2cnc(-n3cc([S+](C)[O-])c4ccc(C(=O)N5CCOCC5)cc43)nc2)c1 (stereo not shown) [Example 192, Methyl 3-(2-(3-(methylsulfinyl)-6-(morpholine-4-carbonyl)-1H-indol-1-yl)pyrimidin-5-yl)benzoate] | 112% | 217 to 220 °C |
| C[S+]([O-])c1cn(-c2ncc(-c3cccc(C(=O)O)c3)cn2)c2cc(C(=O)N3CCOCC3)ccc12 (stereo not shown) [Example 193, 3-(2-(3-(Methylsulfinyl)-6-(morpholine-4-carbonyl)-1H-indol-1-yl)pyrimidin-5-yl)benzoic acid] | 91% | 230 to 235 °C |
